# Measured values: article PMC9823097, “Dysregulation of PRMT5 in chronic lymphocytic leukemia promotes progression with high risk of Richter’s transformation” (Nature Communications, 2023)
# Tested on: Mec-1 cells
# Experiment: Cell growth curves over 12 days, Mec-1
# Assay type: cell-based
# Description: Live cells/mL were counted on days 3, 6, 10, and 12. […] The split factor was calculated at indicated time points by dividing the counted cells/mL by 3E5. Cell growth was extrapolated over time by multiplying the subsequent cell count by the previous split factor. Cell growth is plotted as fold change relative to DMSO-treated cells.
compound,measurement,setting,value
O=C(NC[C@H](O)CN1CCc2ccccc2C1)c1cc(NC2COC2)ncn1 [EPZ015666],Rep 1 Live Cells [Fold Change],"Mec-1, 1 nM, day 0",1 Fold Change
same,Rep 2 Live Cells [Fold Change],"Mec-1, 1 nM, day 0",1 Fold Change
same,Rep 1 Live Cells [Fold Change],"Mec-1, 1 nM, day 3",8.617 Fold Change
same,Rep 2 Live Cells [Fold Change],"Mec-1, 1 nM, day 3",9.35 Fold Change
same,Rep 1 Live Cells [Fold Change],"Mec-1, 1 nM, day 6",72.0928 Fold Change
same,Rep 2 Live Cells [Fold Change],"Mec-1, 1 nM, day 6",74.5 Fold Change
same,Rep 1 Live Cells [Fold Change],"Mec-1, 1 nM, day 10",633.719 Fold Change
same,Rep 2 Live Cells [Fold Change],"Mec-1, 1 nM, day 10",819 Fold Change
same,Rep 1 Live Cells [Fold Change],"Mec-1, 1 nM, day 12",3882.24 Fold Change
same,Rep 2 Live Cells [Fold Change],"Mec-1, 1 nM, day 12",4970 Fold Change
same,Rep 1 Live Cells [Fold Change],"Mec-1, 10 nM, day 0",1 Fold Change
same,Rep 2 Live Cells [Fold Change],"Mec-1, 10 nM, day 0",1 Fold Change
same,Rep 1 Live Cells [Fold Change],"Mec-1, 10 nM, day 3",7.233 Fold Change
same,Rep 2 Live Cells [Fold Change],"Mec-1, 10 nM, day 3",10.3 Fold Change
same,Rep 1 Live Cells [Fold Change],"Mec-1, 10 nM, day 6",40.9889 Fold Change
same,Rep 2 Live Cells [Fold Change],"Mec-1, 10 nM, day 6",85.8 Fold Change
same,Rep 1 Live Cells [Fold Change],"Mec-1, 10 nM, day 10",534.674 Fold Change
same,Rep 2 Live Cells [Fold Change],"Mec-1, 10 nM, day 10",1290 Fold Change
same,Rep 1 Live Cells [Fold Change],"Mec-1, 10 nM, day 12",1546.22 Fold Change
same,Rep 2 Live Cells [Fold Change],"Mec-1, 10 nM, day 12",3960 Fold Change
same,Rep 1 Live Cells [Fold Change],"Mec-1, 100 nM, day 0",1 Fold Change
same,Rep 2 Live Cells [Fold Change],"Mec-1, 100 nM, day 0",1 Fold Change
same,Rep 3 Live Cells [Fold Change],"Mec-1, 100 nM, day 0",1 Fold Change
same,Rep 4 Live Cells [Fold Change],"Mec-1, 100 nM, day 0",1 Fold Change
same,Rep 1 Live Cells [Fold Change],"Mec-1, 100 nM, day 3",10.3 Fold Change
same,Rep 2 Live Cells [Fold Change],"Mec-1, 100 nM, day 3",8.66 Fold Change
same,Rep 3 Live Cells [Fold Change],"Mec-1, 100 nM, day 3",6.583 Fold Change
same,Rep 4 Live Cells [Fold Change],"Mec-1, 100 nM, day 3",8.22 Fold Change
same,Rep 1 Live Cells [Fold Change],"Mec-1, 100 nM, day 6",88.992 Fold Change
same,Rep 2 Live Cells [Fold Change],"Mec-1, 100 nM, day 6",55.1353 Fold Change
same,Rep 3 Live Cells [Fold Change],"Mec-1, 100 nM, day 6",56.8361 Fold Change
same,Rep 4 Live Cells [Fold Change],"Mec-1, 100 nM, day 6",60.1 Fold Change
same,Rep 2 Live Cells [Fold Change],"Mec-1, 100 nM, day 10",518.272 Fold Change
same,Rep 3 Live Cells [Fold Change],"Mec-1, 100 nM, day 10",601.592 Fold Change
same,Rep 4 Live Cells [Fold Change],"Mec-1, 100 nM, day 10",484 Fold Change
same,Rep 1 Live Cells [Fold Change],"Mec-1, 100 nM, day 12",615.119 Fold Change
same,Rep 2 Live Cells [Fold Change],"Mec-1, 100 nM, day 12",1560 Fold Change
same,Rep 3 Live Cells [Fold Change],"Mec-1, 100 nM, day 12",1676.06 Fold Change
same,Rep 4 Live Cells [Fold Change],"Mec-1, 100 nM, day 12",3230 Fold Change
same,Rep 1 Live Cells [Fold Change],"Mec-1, 1 µM, day 0",1 Fold Change
same,Rep 2 Live Cells [Fold Change],"Mec-1, 1 µM, day 0",1 Fold Change
same,Rep 3 Live Cells [Fold Change],"Mec-1, 1 µM, day 0",1 Fold Change
same,Rep 4 Live Cells [Fold Change],"Mec-1, 1 µM, day 0",1 Fold Change
same,Rep 1 Live Cells [Fold Change],"Mec-1, 1 µM, day 3",7.867 Fold Change
same,Rep 2 Live Cells [Fold Change],"Mec-1, 1 µM, day 3",5.46 Fold Change
same,Rep 3 Live Cells [Fold Change],"Mec-1, 1 µM, day 3",6.18 Fold Change
same,Rep 4 Live Cells [Fold Change],"Mec-1, 1 µM, day 3",8.87 Fold Change
same,Rep 1 Live Cells [Fold Change],"Mec-1, 1 µM, day 6",54.0178 Fold Change
same,Rep 2 Live Cells [Fold Change],"Mec-1, 1 µM, day 6",38.4384 Fold Change
same,Rep 3 Live Cells [Fold Change],"Mec-1, 1 µM, day 6",49.852 Fold Change
same,Rep 4 Live Cells [Fold Change],"Mec-1, 1 µM, day 6",61.2 Fold Change
same,Rep 1 Live Cells [Fold Change],"Mec-1, 1 µM, day 10",514.04 Fold Change
same,Rep 2 Live Cells [Fold Change],"Mec-1, 1 µM, day 10",244.725 Fold Change
same,Rep 3 Live Cells [Fold Change],"Mec-1, 1 µM, day 10",462.377 Fold Change
same,Rep 4 Live Cells [Fold Change],"Mec-1, 1 µM, day 10",387 Fold Change
same,Rep 1 Live Cells [Fold Change],"Mec-1, 1 µM, day 12",1825.77 Fold Change
same,Rep 2 Live Cells [Fold Change],"Mec-1, 1 µM, day 12",748.774 Fold Change
same,Rep 3 Live Cells [Fold Change],"Mec-1, 1 µM, day 12",1841.8 Fold Change
same,Rep 4 Live Cells [Fold Change],"Mec-1, 1 µM, day 12",1610 Fold Change
same,effect on growth potential (cell growth),"Mec-1, continuous exposure over 12 days",No changes in growth potential
